Data from the supplement of paper PMC10307832.

Columns and labels:
Assay in all cases: relative viability (nuclei count vs DMSO), 5 days (fraction); higher = more cells survive
Etoposide + Tozasertib = compound: COc1cc([C@@H]2c3cc4c(cc3[C@@H](O[C@@H]3O[C@@H]5CO[C@@H](C)O[C@H]5[C@H](O)[C@H]3O)[C@H]3COC(=O)[C@H]23)OCO4)cc(OC)c1O [Etoposide] + Cc1cc(Nc2cc(N3CCN(C)CC3)nc(Sc3ccc(NC(=O)C4CC4)cc3)n2)n[nH]1 [Tozasertib] (partner 0.1 µM)
In short: (§1)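 After 5 days of treatment, lung cancer cells in 1536-well plates were fixed and stained in a single step (final 0.05% Triton X-100, 1% formaldehyde, 1 ug/ml Hoechst) and their nuclei counted on 4× images. Treatment had been applied by pin tool the day after seeding as one drug alone or as a fixed anchor-drug dose with five library-drug doses (not always all listed) in √10 steps. Relative viability is the nuclei count of treated wells divided by that of vehicle wells, and values are medians of duplicate plates.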

Bleomycin + Olaparib = compound: CC1=C(N=C(N=C1N)[C@H](CC(=O)N)NC[C@@H](C(=O)N)N)C(=O)N[C@@H]([C@H](C2=CN=CN2)OC3C(C(C(C(O3)CO)O)O)OC4C(C(C(C(O4)CO)O)OC(=O)N)O)C(=O)N[C@H](C)[C@H]([C@H](C)C(=O)N[C@@H]([C@@H](C)O)C(=O)NCCC5=NC(=CS5)C6=NC(=CS6)C(=O)NCCC[S+](C)C)O [Bleomycin] + O=C(c1cc(Cc2n[nH]c(=O)c3ccccc23)ccc1F)N1CCN(C(=O)C2CC2)CC1 [Olaparib] (partner 8 µM); conditions: main component drawn
In short: as §1

Etoposide + Decitabine = compound: COc1cc([C@@H]2c3cc4c(cc3[C@@H](O[C@@H]3O[C@@H]5CO[C@@H](C)O[C@H]5[C@H](O)[C@H]3O)[C@H]3COC(=O)[C@H]23)OCO4)cc(OC)c1O [Etoposide] + Nc1ncn([C@H]2C[C@H](O)[C@@H](CO)O2)c(=O)n1 [Decitabine] (partner 2 µM)
In short: as §1

Bleomycin + Lapatinib = compound: CC1=C(N=C(N=C1N)[C@H](CC(=O)N)NC[C@@H](C(=O)N)N)C(=O)N[C@@H]([C@H](C2=CN=CN2)OC3C(C(C(C(O3)CO)O)O)OC4C(C(C(C(O4)CO)O)OC(=O)N)O)C(=O)N[C@H](C)[C@H]([C@H](C)C(=O)N[C@@H]([C@@H](C)O)C(=O)NCCC5=NC(=CS5)C6=NC(=CS6)C(=O)NCCC[S+](C)C)O [Bleomycin] + CS(=O)(=O)CCNCc1ccc(-c2ccc3ncnc(Nc4ccc(OCc5cccc(F)c5)c(Cl)c4)c3c2)o1 [Lapatinib] (partner 2 µM); conditions: main component drawn
In short: as §1

Cell Line	relative viability (Etoposide + Tozasertib; first compound 0.01 µM)	relative viability (Etoposide + Tozasertib; first compound 0.03162 µM)	relative viability (Etoposide + Tozasertib; first compound 0.1 µM)	relative viability (Etoposide + Tozasertib; first compound 0.3162 µM)	relative viability (Etoposide + Tozasertib; first compound 1 µM)	relative viability (Bleomycin + Olaparib; first compound 0.01 µM)	relative viability (Bleomycin + Olaparib; first compound 0.03162 µM)	relative viability (Bleomycin + Olaparib; first compound 0.1 µM)	relative viability (Bleomycin + Olaparib; first compound 0.3162 µM)	relative viability (Bleomycin + Olaparib; first compound 1 µM)	relative viability (Etoposide + Decitabine; first compound 0.01 µM)	relative viability (Etoposide + Decitabine; first compound 0.03162 µM)	relative viability (Etoposide + Decitabine; first compound 0.1 µM)	relative viability (Etoposide + Decitabine; first compound 0.3162 µM)	relative viability (Etoposide + Decitabine; first compound 1 µM)	relative viability (Bleomycin + Lapatinib; first compound 0.01 µM)	relative viability (Bleomycin + Lapatinib; first compound 0.03162 µM)	relative viability (Bleomycin + Lapatinib; first compound 0.1 µM)	relative viability (Bleomycin + Lapatinib; first compound 0.3162 µM)	relative viability (Bleomycin + Lapatinib; first compound 1 µM)
NCI-H3122	0.441	0.324	0.262	0.281	0.159	0.593	0.599	0.506	0.364	0.279	0.465	0.536	0.384	0.385	0.249	0.931	0.996	0.842	0.654	0.528
PC-3 [JPC-3]	0.841	0.882	0.928	0.853	0.707	0.932	1.13	0.825	0.481	0.486	0.813	0.921	0.836	0.737	0.692	0.455	0.422	0.473	0.364	0.314
PC-14	0.595	0.536	0.754	0.496	0.213	0.114	0.147	0.0932	0.0421	0.0404	0.242	0.248	0.258	0.182	0.103	0.302	0.244	0.222	0.096	0.0848
RERF-LC-KJ	0.532	0.448	0.493	0.386	0.316	0.425	0.385	0.325	0.162	0.16	0.643	0.638	0.54	0.579	0.335	0.72	0.702	0.59	0.354	0.254
SK-LU-1	0.356	0.278	0.318	0.161	0.167	0.38	0.436	0.397	0.307	0.29	0.561	0.604	0.513	0.306	0.252	0.745	0.858	0.709	0.35	0.347
SK-MES-1	0.877	0.807	0.833	0.389	0.222	0.528	0.493	0.439	0.169	0.153	0.344	0.481	0.35	0.238	0.199	0.506	0.438	0.407	0.303	0.255
SW 1573	0.163	0.133	0.164	0.156	0.0887	0.291	0.336	0.292	0.153	0.123	0.434	0.5	0.243	0.159	0.0836	1.05	0.871	0.84	0.446	0.4
